Holding throughout (format): protein-complex assay
In assay [1] the target is Neuronal acetylcholine receptor; alpha2/beta2 (Rattus norvegicus, UniProt P12389+P12390). The experiment in a line: Binding affinity towards nicotinic acetylcholine receptor alpha2-beta2 using [3H]epibatidine.
The target in assay [2] is Neuronal acetylcholine receptor; alpha2/beta4 (Rattus norvegicus, UniProt P12389+P12392). The experiment in a line: Binding affinity towards Nicotinic acetylcholine receptor alpha2-beta4 using [3H]epibatidine.
Chain of Neuronal acetylcholine receptor; alpha2/beta4 (P12389 whole entry): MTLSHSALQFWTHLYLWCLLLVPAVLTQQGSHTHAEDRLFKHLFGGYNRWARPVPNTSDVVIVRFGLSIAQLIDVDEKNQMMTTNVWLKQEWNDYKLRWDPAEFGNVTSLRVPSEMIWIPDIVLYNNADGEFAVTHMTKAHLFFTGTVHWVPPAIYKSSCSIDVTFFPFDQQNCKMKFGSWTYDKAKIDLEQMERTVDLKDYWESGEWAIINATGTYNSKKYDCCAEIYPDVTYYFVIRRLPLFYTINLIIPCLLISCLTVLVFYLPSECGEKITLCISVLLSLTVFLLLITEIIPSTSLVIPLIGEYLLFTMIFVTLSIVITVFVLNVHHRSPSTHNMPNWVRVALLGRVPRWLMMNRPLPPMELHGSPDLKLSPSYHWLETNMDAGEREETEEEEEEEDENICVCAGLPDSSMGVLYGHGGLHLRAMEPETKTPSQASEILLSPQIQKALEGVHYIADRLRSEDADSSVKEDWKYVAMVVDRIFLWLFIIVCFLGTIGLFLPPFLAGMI
Chain of Neuronal acetylcholine receptor; alpha2/beta4 (P12392 whole entry): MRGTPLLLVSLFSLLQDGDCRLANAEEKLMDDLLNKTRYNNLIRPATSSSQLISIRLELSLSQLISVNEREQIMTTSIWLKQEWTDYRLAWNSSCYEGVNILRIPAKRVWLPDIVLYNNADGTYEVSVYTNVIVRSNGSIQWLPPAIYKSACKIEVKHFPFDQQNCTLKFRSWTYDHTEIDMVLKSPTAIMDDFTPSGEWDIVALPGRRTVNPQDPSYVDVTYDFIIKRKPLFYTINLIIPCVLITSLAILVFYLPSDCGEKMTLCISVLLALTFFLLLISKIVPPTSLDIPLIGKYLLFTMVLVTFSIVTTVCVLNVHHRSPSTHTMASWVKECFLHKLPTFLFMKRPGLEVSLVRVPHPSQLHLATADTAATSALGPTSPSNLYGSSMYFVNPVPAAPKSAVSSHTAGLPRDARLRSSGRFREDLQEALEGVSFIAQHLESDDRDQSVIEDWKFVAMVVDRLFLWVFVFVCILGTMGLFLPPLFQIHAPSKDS
Assay [3] concerns the target Neuronal acetylcholine receptor; alpha4/beta4 (Rattus norvegicus, UniProt P09483+P12392). The experiment in a line: Binding affinity towards Nicotinic acetylcholine receptor alpha4-beta4 using [3H]epibatidine.
Assay [4] addresses Neuronal acetylcholine receptor; alpha3/beta2 (Rattus norvegicus, UniProt P04757+P12390). The experiment in a line: Binding affinity towards Nicotinic acetylcholine receptor alpha3-beta2 using [3H]epibatidine.
Assay [5] has as its target T1, Neuronal acetylcholine receptor; alpha3/beta4 (Rattus norvegicus, UniProt P04757+P12392). The experiment in a line: Binding affinity towards Nicotinic acetylcholine receptor alpha3-beta4.
For assay [6], the target named is Neuronal acetylcholine receptor; alpha4/beta2 (Rattus norvegicus, UniProt P09483+P12390). The experiment in a line: Binding affinity towards Nicotinic acetylcholine receptor alpha4-beta2 using [3H]epibatidine.
Chain of Neuronal acetylcholine receptor; alpha4/beta2 (P09483 whole entry): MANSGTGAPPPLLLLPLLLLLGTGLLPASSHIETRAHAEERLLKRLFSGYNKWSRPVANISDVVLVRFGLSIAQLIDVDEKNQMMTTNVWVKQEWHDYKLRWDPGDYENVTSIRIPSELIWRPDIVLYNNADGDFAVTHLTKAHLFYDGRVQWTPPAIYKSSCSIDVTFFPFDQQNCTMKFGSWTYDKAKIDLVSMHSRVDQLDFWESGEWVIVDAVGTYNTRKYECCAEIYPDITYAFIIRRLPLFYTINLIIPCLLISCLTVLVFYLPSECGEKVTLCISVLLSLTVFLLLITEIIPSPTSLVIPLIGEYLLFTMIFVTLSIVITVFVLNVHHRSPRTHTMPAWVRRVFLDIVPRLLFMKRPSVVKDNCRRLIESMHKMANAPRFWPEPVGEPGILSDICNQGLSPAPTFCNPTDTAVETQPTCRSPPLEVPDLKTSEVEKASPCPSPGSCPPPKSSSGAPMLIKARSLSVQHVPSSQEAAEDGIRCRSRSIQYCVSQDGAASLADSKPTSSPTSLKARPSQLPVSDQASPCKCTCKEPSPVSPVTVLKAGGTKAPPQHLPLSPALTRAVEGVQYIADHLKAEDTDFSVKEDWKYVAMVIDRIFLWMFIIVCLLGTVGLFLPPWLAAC
Chain of Neuronal acetylcholine receptor; alpha4/beta2 (P12390 whole entry): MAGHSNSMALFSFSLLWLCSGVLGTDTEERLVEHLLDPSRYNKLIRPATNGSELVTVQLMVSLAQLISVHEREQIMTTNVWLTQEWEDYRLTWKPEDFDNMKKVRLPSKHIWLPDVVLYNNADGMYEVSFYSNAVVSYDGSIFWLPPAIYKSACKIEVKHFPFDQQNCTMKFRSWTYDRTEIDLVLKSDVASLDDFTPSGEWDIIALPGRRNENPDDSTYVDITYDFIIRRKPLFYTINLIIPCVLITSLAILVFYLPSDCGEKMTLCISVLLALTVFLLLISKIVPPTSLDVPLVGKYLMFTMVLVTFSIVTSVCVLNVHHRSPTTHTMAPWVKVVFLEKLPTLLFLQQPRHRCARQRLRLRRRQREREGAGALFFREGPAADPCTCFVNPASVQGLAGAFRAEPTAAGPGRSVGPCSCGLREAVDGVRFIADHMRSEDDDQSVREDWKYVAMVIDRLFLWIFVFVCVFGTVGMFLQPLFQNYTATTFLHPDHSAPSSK
Assay [7] has as its target T1, Neuronal acetylcholine receptor; alpha3/beta4. The experiment in a line: Binding affinity towards Nicotinic acetylcholine receptor alpha3-beta4 using [3H]epibatidine.

In general, Ki refers to a measure of affinity in units of concentration, obtained from inhibition or displacement. Lower therefore signals higher affinity.

Structures are written as SMILES.

Chain of Neuronal acetylcholine receptor; alpha4/beta4 (P09483 whole entry): as the sequence (P09483 whole entry) above
Chain of Neuronal acetylcholine receptor; alpha4/beta4 (P12392 whole entry): as the sequence (P12392 whole entry) above
Chain of Neuronal acetylcholine receptor; alpha2/beta2 (P12389 whole entry): as the sequence (P12389 whole entry) above
Chain of Neuronal acetylcholine receptor; alpha2/beta2 (P12390 whole entry): as the sequence (P12390 whole entry) above
Chain of Neuronal acetylcholine receptor; alpha3/beta2 (P04757 whole entry): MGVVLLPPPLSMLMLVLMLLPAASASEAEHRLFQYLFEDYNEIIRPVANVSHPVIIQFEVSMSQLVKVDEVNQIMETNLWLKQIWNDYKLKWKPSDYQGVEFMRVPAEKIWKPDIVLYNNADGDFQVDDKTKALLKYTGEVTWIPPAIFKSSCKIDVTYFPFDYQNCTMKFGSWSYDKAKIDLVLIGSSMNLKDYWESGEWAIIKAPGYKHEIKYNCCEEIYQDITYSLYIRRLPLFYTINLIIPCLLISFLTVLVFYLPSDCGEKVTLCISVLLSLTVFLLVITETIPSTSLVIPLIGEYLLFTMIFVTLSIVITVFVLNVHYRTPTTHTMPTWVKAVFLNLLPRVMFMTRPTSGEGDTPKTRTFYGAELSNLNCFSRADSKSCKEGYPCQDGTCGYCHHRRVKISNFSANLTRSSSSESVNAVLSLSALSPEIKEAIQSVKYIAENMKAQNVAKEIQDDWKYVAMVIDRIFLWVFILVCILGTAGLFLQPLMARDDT
Chain of Neuronal acetylcholine receptor; alpha3/beta2 (P12390 whole entry): as the sequence (P12390 whole entry) above
T1 sequence (P04757 whole entry): as the sequence (P04757 whole entry) above
T1 sequence (P12392 whole entry): as the sequence (P12392 whole entry) above

`Clc1ccc(C2CC3CCC2N3CCN2C3CCC2C(c2ccc(Cl)nc2)C3)cn1` (centres undefined): the Ki in assay [1] is 2.08 nM; in assay [2] it was 26.8 nM; in assay [3], 27.7 nM; in assay [4], 5.44 nM; in assay [5] it was 47.8 nM; in assay [6], 9.33 nM.
As for `Clc1ccc(C2CC3CCC2N3CCCCCCN2C3CCC2C(c2ccc(Cl)nc2)C3)cn1` (centres undefined), the Ki was 3.13 nM in assay [1]; 47.8 nM in assay [2]; 40.4 nM in assay [3]; 6.19 nM in assay [4]; 9.05 nM in assay [6]; 82.2 nM in assay [7].
Consider `Clc1ccc(C2CC3CCC2N3CCCN2C3CCC2C(c2ccc(Cl)nc2)C3)cn1` (centres undefined), for which the Ki in assay [1] stood at 5.53 nM; in assay [2] it was 57.3 nM; in assay [3], 54.2 nM; in assay [4], 8.99 nM; in assay [6] it was 15.7 nM; in assay [7], 112 nM.
As to `Clc1ccc(C2CC3CCC2N3CCCCCCCCCCN2C3CCC2C(c2ccc(Cl)nc2)C3)cn1` (centres undefined), the Ki came out at 7.51 nM in assay [1]; 71.7 nM in assay [2]; 61.3 nM in assay [3]; 12.6 nM in assay [4]; 21.6 nM in assay [6]; 138 nM in assay [7].

Source of the values: ChEMBL document CHEMBL1147511 (Bioorg Med Chem Lett, 2004).
